Experimental findings from ChEMBL document CHEMBL3044606, “Binding of sodium houttuyfonate analogues to bovine serum albumin revealed by fluoresence quenching study” (Med Chem Res, 2010) are described below.

Structures are written as SMILES.

Common to all, as to assay type: ADME
Holding throughout (conditions): cattle, isolated protein

Data set [1] addresses T1, Albumin (Bos taurus, UniProt P02769). Nature of the data set: Binding affinity to Bos taurus (bovine) serum albumin assessed as decrease in decrease in absorption at 50 uM after 5 min by UV-Vis spectrophotometric analysis. Also on record: scale not given: the % may be the effect or the level left.
Data set [2] deals with T1, Albumin. Nature of the data set: Binding affinity to Bos taurus (bovine) serum albumin after 5 min at 37 degC by Stern-Volmer plot analysis.
Data set [3] deals with T1, Albumin. Nature of the data set: Binding affinity to Bos taurus (bovine) serum albumin after 5 min at 25 degC by Stern-Volmer plot analysis.
For data set [4], the target named is T1, Albumin. Nature of the data set: Binding affinity to Bos taurus (bovine) serum albumin assessed as shift in emission wavelength at 25 to 200 uM after 5 min by fluorimetric analysis.
In data set [5] the target is T1, Albumin. As to the kind of experiment: Binding affinity to Bos taurus (bovine) serum albumin assessed as decrease in fluorescence at 1:25 protein:compound ratio after 5 min by fluorimetric analysis.
Data set [6] deals with T1, Albumin. As to the kind of experiment: Binding affinity to Bos taurus (bovine) serum albumin assessed as decrease in fluorescence after 5 min by fluorimetric analysis.

T1 sequence (P02769 whole entry): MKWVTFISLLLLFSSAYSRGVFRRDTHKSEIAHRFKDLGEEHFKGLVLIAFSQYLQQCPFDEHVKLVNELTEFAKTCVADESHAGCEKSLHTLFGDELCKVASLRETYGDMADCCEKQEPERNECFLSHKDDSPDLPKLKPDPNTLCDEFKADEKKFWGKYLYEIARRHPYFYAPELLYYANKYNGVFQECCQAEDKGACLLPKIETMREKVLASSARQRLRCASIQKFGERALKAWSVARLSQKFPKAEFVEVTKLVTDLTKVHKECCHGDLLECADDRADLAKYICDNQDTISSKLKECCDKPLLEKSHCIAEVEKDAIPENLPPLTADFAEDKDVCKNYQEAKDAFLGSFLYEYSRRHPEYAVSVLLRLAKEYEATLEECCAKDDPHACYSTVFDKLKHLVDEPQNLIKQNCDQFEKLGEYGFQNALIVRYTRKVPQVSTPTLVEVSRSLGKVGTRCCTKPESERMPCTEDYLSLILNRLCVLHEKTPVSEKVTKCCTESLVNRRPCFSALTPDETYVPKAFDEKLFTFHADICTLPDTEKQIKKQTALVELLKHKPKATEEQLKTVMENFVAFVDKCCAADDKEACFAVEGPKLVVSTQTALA

Consider `CCCCCCCCCCCC(=O)CC(O)S(=O)(=O)[O-].[Na+]` (stereo not given) [DODECANOYL ACETAL SODIUM SULFITE], for which the Activity on Albumin [1] is 90%; at Albumin [4], “Not Active”; at Albumin [5], “Active”; at Albumin [6] it was “Dose-dependent effect”. In addition, the KSV worked out at 72 ×10³ /M at Albumin [2] and 147.9 ×10³ /M at Albumin [3]. The Kq came out at 7.2 ×10¹² /M/s at Albumin [2] and 14.79 ×10¹² /M/s on Albumin [3]. Besides, the K at Albumin [3] is recorded as 0.197 ×10⁶ /M.
With `CCCCCC(=O)CC(O)S(=O)(=O)[O-].[Na+]` (stereo not given) [HEXANOYL ACETAL SODIUM SULFITE], the Activity on Albumin [1] is on record as 50%; at Albumin [4], “Not Active”; on Albumin [5], “Not Active”; on Albumin [6] it was “Dose-dependent effect”. Also, the figures for the KSV on Albumin [2] and at Albumin [3] were 73.5 ×10³ /M and 36.7 ×10³ /M, respectively. The Kq is given as 7.35 ×10¹² /M/s on Albumin [2] and 3.67 ×10¹² /M/s at Albumin [3]. The compound further gave a K on Albumin [3] of 6.7081 ×10⁶ /M.
For `CCCCCCCCCCCCCC(=O)CC(O)S(=O)(=O)[O-].[Na+]` (stereo not given) [TETRADECANOYL ACETAL SODIUM SULFITE], the Activity is given as 90% on Albumin [1], “Not Active” at Albumin [4], “Active” on Albumin [5] and “Dose-dependent effect” at Albumin [6]. Further, the KSV at Albumin [2] is recorded as 93.2 ×10³ /M; at Albumin [3], 121.7 ×10³ /M. The Kq on Albumin [2] turned out to be 9.32 ×10¹² /M/s; on Albumin [3], 12.17 ×10¹² /M/s. At Albumin [3], the K was determined as 1360.5 ×10⁶ /M.
In the case of `CCCCCCCCCC(=O)CC(O)S(=O)(=O)[O-].[Na+]` (stereo not given) [SODIUM HOUTTUYFONATE], the Activity on Albumin [1] is on record as 90%; on Albumin [4], “Not Active”; on Albumin [5], “Active”; at Albumin [6], “Dose-dependent effect”. For the same compound, the KSV came to 113 ×10³ /M on Albumin [2] and 217.3 ×10³ /M on Albumin [3]. In addition, the Kq on Albumin [2] is given as 11.3 ×10¹² /M/s; on Albumin [3] it was 21.73 ×10¹² /M/s. The compound also registered a K on Albumin [3] of 84.606 ×10⁶ /M.
Take `CCCCCCCC(=O)CC(O)S(=O)(=O)[O-].[Na+]` (stereo not given) [OCTANOYL ACETAL SODIUM SULFITE]: the Activity on Albumin [1] was 50%; at Albumin [4], “Not Active”; on Albumin [5] it was “Active”; at Albumin [6], “Dose-dependent effect”. For the same compound, the KSV on Albumin [2] is listed as 529.2 ×10³ /M; at Albumin [3], 381.3 ×10³ /M. Also, the Kq on Albumin [2] turned out to be 52.92 ×10¹² /M/s; on Albumin [3] it was 38.13 ×10¹² /M/s. This compound had a K on Albumin [3] of 691.83 ×10⁶ /M.
